Source: the supplement of paper PMC6045584

How the values were obtained:
Experiment in all cases: area under dose-response curve of surviving fraction (unscaled, Aref=0) (surviving fraction x log10(nM)); higher = more resistant
Details in all cases: exposure time: 5 days; dose range 0.5-1000 nM
[1] = compound: COc1cc2ncnc(Nc3ccc(F)c(Cl)c3)c2cc1NC(=O)/C=C/CN1CCCCC1
Method in brief: (§1)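 Tumour cell lines in 384-well plates were exposed to eight inhibitor concentrations, from 0.5 to 1000 nM, for five days, and viability was read by CellTiter-Glo luminescence in three screens per line. Signals were normalised to DMSO-only wells, and 3-parameter logistic regression in the drc R package fitted dose-response survival curves to the surviving fractions. Area under the curve is given as the unscaled activity area. That area is taken over log10 dose with Aref = 0.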

ABIRATERONE = compound: C[C@]12CC[C@H](O)CC1=CC[C@@H]1[C@@H]2CC[C@]2(C)C(c3cccnc3)=CC[C@@H]12 [ABIRATERONE]
Method in brief: as §1

FORETINIB = compound: COc1cc2c(Oc3ccc(NC(=O)C4(C(=O)Nc5ccc(F)cc5)CC4)cc3F)ccnc2cc1OCCCN1CCOCC1 [FORETINIB]
Method in brief: as §1

SORAFENIB = compound: CNC(=O)c1cc(Oc2ccc(NC(=O)Nc3ccc(Cl)c(C(F)(F)F)c3)cc2)ccn1 [SORAFENIB]
Method in brief: as §1

XAV-939 = compound: Oc1nc(-c2ccc(C(F)(F)F)cc2)nc2c1CSCC2 [XAV-939]
Method in brief: as §1

DASATINIB = compound: Cc1nc(Nc2ncc(C(=O)Nc3c(C)cccc3Cl)s2)cc(N2CCN(CCO)CC2)n1 [DASATINIB]
Method in brief: as §1

[2] = compound: C[C@@H](Oc1cc(-c2cnn(C3CCNCC3)c2)cnc1N)c1c(Cl)ccc(F)c1Cl
Method in brief: as §1

MLN-4924 = compound: NS(=O)(=O)OC[C@@H]1C[C@@H](n2ccc3c(N[C@H]4CCc5ccccc54)ncnc32)C[C@@H]1O [MLN-4924]
Method in brief: as §1

SOTRASTAURIN/AEB071 = compound: CN1CCN(c2nc(C3=C(c4c[nH]c5ccccc45)C(=O)NC3=O)c3ccccc3n2)CC1 [SOTRASTAURIN/AEB071]
Method in brief: as §1

OLAPARIB = compound: O=C(c1cc(Cc2n[nH]c(=O)c3ccccc23)ccc1F)N1CCN(C(=O)C2CC2)CC1 [OLAPARIB]
Method in brief: as §1

[3] = compound: CCn1c(C(=O)N(C2CC2)C2CC2)cc2c3c(ncn3C)c(Nc3cc(C)n(C)n3)nc21
Method in brief: as §1

[4] = compound: CNCc1ccc(-c2[nH]c3cc(F)cc4c3c2CCNC4=O)cc1
Method in brief: as §1

CRIZOTINIB = compound: C[C@@H](Oc1cc(-c2cnn(C3CCNCC3)c2)cnc1N)c1c(Cl)ccc(F)c1Cl [CRIZOTINIB]
Method in brief: as §1

TEMOZOLOMIDE = compound: Cn1nnc2c(C(N)=O)ncn2c1=O [TEMOZOLOMIDE]
Method in brief: as §1

Row | Test System | area under dose-response curve [1] | area under dose-response curve (ABIRATERONE) | area under dose-response curve (FORETINIB) | area under dose-response curve (SORAFENIB) | area under dose-response curve (XAV-939) | area under dose-response curve (DASATINIB) | area under dose-response curve [2] | area under dose-response curve (MLN-4924) | area under dose-response curve (SOTRASTAURIN/AEB071) | area under dose-response curve (OLAPARIB) | area under dose-response curve [3] | area under dose-response curve [4] | area under dose-response curve (CRIZOTINIB) | area under dose-response curve (TEMOZOLOMIDE)
1 | MDAMB436 BREAST | 3.06 | 3.11 | 3.16 | 3.22 | 3.05 | 2.65 | 2.84 | 2.24 | 2.8 | 2.31 | 2.67 | 2.37 | 3.4 | 3.32
2 | H23 LUNG | 1.51 | 3.65 | 3.19 | 3.89 | 2.94 | 2.14 | 3.24 | 2.48 | 3.58 | 3.67 | 3.2 | 3.63 | 3.48 | 3.33
3 | COLO320DM LARGE INTESTINE | 3.2 | 3.36 | 3.16 | 3.67 | 3.19 | 3.52 | 3.01 | 3.14 | 3.45 | 3.46 | 3.77 | 3.27 | 3.21 | 3.45
4 | SYO1 SYNOVIAL | 3.02 | 3.32 | 2.43 | 3.06 | 3.01 | 1.7 | 2.44 | 2.1 | 3.01 | 2.48 | 3.06 | 2.25 | 2.71 | 3.18
5 | A549 LUNG | 3.32 | 3.53 | 3.13 | 3.44 | 3.48 | 2.72 | 3.25 | 3.14 |  | 3.48 | 3.2 | 3.56 | 3.27 | 3.43
6 | HCC1806 BREAST | 2.42 | 3.71 |  | 3.16 | 3.59 | 1.53 | 2.87 | 1.35 | 3.26 | 2.84 | 3.46 | 2.77 | 3.08 | 3.62
7 | MDAMB361 BREAST | 2.58 |  | 2.98 | 2.79 | 3.04 | 2.45 | 2.88 | 2.48 | 2.21 | 2.26 | 2.83 | 2.1 | 2.86 | 3.06
8 | HCT15 LARGE INTESTINE |  | 3.64 | 2.87 | 3.39 | 3.27 | 2.15 | 3.17 | 2.78 | 3.44 |  | 3.26 | 3.36 | 3.26 | 3.41
9 | MHM BONE | 3.28 | 3.43 | 3.2 | 3.47 | 3.28 | 2.44 | 3.21 |  | 3.52 | 3.42 | 3.28 | 3.49 | 3.27 | 3.31
